Measurements taken from the supplement of paper PMC10307832.

Assays:
Assay in all cases: relative viability (nuclei count vs DMSO), 5 days (fraction); higher = more cells survive
Imatinib + Vorinostat = compound: Cc1ccc(NC(=O)c2ccc(CN3CCN(C)CC3)cc2)cc1Nc1nccc(-c2cccnc2)n1 [Imatinib] + O=C(CCCCCCC(=O)Nc1ccccc1)NO [Vorinostat] (partner 1 µM)
Procedure, shortened: (§1)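 Values are medians from duplicate plates. Each reflects relative viability, defined as the nuclei count of treated wells over that of vehicle wells. Lung cancer cell lines in 1536-well plates were pin-tool dosed one day after seeding with one drug alone or with a fixed anchor-drug dose plus five library-drug doses (not always all listed) in √10 steps, then fixed, stained and imaged at 4× after 5 days.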

Imatinib + Pictilisib = compound: Cc1ccc(NC(=O)c2ccc(CN3CCN(C)CC3)cc2)cc1Nc1nccc(-c2cccnc2)n1 [Imatinib] + CS(=O)(=O)N1CCN(Cc2cc3nc(-c4cccc5[nH]ncc45)nc(N4CCOCC4)c3s2)CC1 [Pictilisib] (partner 1 µM)
Procedure, shortened: as §1

Imatinib + Navitoclax = compound: Cc1ccc(NC(=O)c2ccc(CN3CCN(C)CC3)cc2)cc1Nc1nccc(-c2cccnc2)n1 [Imatinib] + CC1(C)CCC(c2ccc(Cl)cc2)=C(CN2CCN(c3ccc(C(=O)NS(=O)(=O)c4ccc(N[C@H](CCN5CCOCC5)CSc5ccccc5)c(S(=O)(=O)C(F)(F)F)c4)cc3)CC2)C1 [Navitoclax] (partner 0.5 µM)
Procedure, shortened: as §1

Imatinib + Lapatinib = compound: Cc1ccc(NC(=O)c2ccc(CN3CCN(C)CC3)cc2)cc1Nc1nccc(-c2cccnc2)n1 [Imatinib] + CS(=O)(=O)CCNCc1ccc(-c2ccc3ncnc(Nc4ccc(OCc5cccc(F)c5)c(Cl)c4)c3c2)o1 [Lapatinib] (partner 2 µM)
Procedure, shortened: as §1

NCI-H838
relative viability (Imatinib + Vorinostat; first compound 0.02 µM): 0.77 | relative viability (Imatinib + Vorinostat; first compound 0.06325 µM): 0.786 | relative viability (Imatinib + Vorinostat; first compound 0.2 µM): 0.74 | relative viability (Imatinib + Vorinostat; first compound 0.6325 µM): 0.708 | relative viability (Imatinib + Vorinostat; first compound 2 µM): 0.76 | relative viability (Imatinib + Pictilisib; first compound 0.02 µM): 0.447 | relative viability (Imatinib + Pictilisib; first compound 0.06325 µM): 0.55 | relative viability (Imatinib + Pictilisib; first compound 0.2 µM): 0.519 | relative viability (Imatinib + Pictilisib; first compound 0.6325 µM): 0.465 | relative viability (Imatinib + Pictilisib; first compound 2 µM): 0.499 | relative viability (Imatinib + Navitoclax; first compound 0.02 µM): 1.34 | relative viability (Imatinib + Navitoclax; first compound 0.06325 µM): 1.54 | relative viability (Imatinib + Navitoclax; first compound 0.2 µM): 1.34 | relative viability (Imatinib + Navitoclax; first compound 0.6325 µM): 1.14 | relative viability (Imatinib + Navitoclax; first compound 2 µM): 1.28

NCI-H460
relative viability (Imatinib + Vorinostat; first compound 0.02 µM): 1.4 | relative viability (Imatinib + Vorinostat; first compound 0.06325 µM): 0.636 | relative viability (Imatinib + Vorinostat; first compound 0.2 µM): 1.09 | relative viability (Imatinib + Vorinostat; first compound 0.6325 µM): 0.705 | relative viability (Imatinib + Vorinostat; first compound 2 µM): 0.735 | relative viability (Imatinib + Pictilisib; first compound 0.02 µM): 0.465 | relative viability (Imatinib + Pictilisib; first compound 0.06325 µM): 0.277 | relative viability (Imatinib + Pictilisib; first compound 0.2 µM): 0.335 | relative viability (Imatinib + Pictilisib; first compound 0.6325 µM): 0.506 | relative viability (Imatinib + Pictilisib; first compound 2 µM): 0.3 | relative viability (Imatinib + Lapatinib; first compound 0.02 µM): 1.41 | relative viability (Imatinib + Lapatinib; first compound 0.06325 µM): 0.872 | relative viability (Imatinib + Lapatinib; first compound 0.2 µM): 1.36 | relative viability (Imatinib + Lapatinib; first compound 0.6325 µM): 1.17 | relative viability (Imatinib + Lapatinib; first compound 2 µM): 1.09 | relative viability (Imatinib + Navitoclax; first compound 0.02 µM): 1.65 | relative viability (Imatinib + Navitoclax; first compound 0.06325 µM): 1.58 | relative viability (Imatinib + Navitoclax; first compound 0.2 µM): 1.96 | relative viability (Imatinib + Navitoclax; first compound 0.6325 µM): 1.17 | relative viability (Imatinib + Navitoclax; first compound 2 µM): 1.3

SW 900
relative viability (Imatinib + Vorinostat; first compound 0.02 µM): 0.615 | relative viability (Imatinib + Vorinostat; first compound 0.06325 µM): 0.564 | relative viability (Imatinib + Vorinostat; first compound 0.2 µM): 0.538 | relative viability (Imatinib + Vorinostat; first compound 0.6325 µM): 0.654 | relative viability (Imatinib + Vorinostat; first compound 2 µM): 0.409

HCC-78
relative viability (Imatinib + Vorinostat; first compound 0.02 µM): 0.417 | relative viability (Imatinib + Vorinostat; first compound 0.06325 µM): 0.344 | relative viability (Imatinib + Vorinostat; first compound 0.2 µM): 0.383 | relative viability (Imatinib + Vorinostat; first compound 0.6325 µM): 0.447 | relative viability (Imatinib + Vorinostat; first compound 2 µM): 0.492 | relative viability (Imatinib + Pictilisib; first compound 0.02 µM): 0.208 | relative viability (Imatinib + Pictilisib; first compound 0.06325 µM): 0.177 | relative viability (Imatinib + Pictilisib; first compound 0.2 µM): 0.198 | relative viability (Imatinib + Pictilisib; first compound 0.6325 µM): 0.207 | relative viability (Imatinib + Pictilisib; first compound 2 µM): 0.2 | relative viability (Imatinib + Lapatinib; first compound 0.02 µM): 0.924 | relative viability (Imatinib + Lapatinib; first compound 0.06325 µM): 0.467 | relative viability (Imatinib + Lapatinib; first compound 0.2 µM): 0.676 | relative viability (Imatinib + Lapatinib; first compound 2 µM): 1.04 | relative viability (Imatinib + Navitoclax; first compound 0.02 µM): 0.725 | relative viability (Imatinib + Navitoclax; first compound 0.06325 µM): 0.62 | relative viability (Imatinib + Navitoclax; first compound 0.2 µM): 0.823 | relative viability (Imatinib + Navitoclax; first compound 0.6325 µM): 0.7 | relative viability (Imatinib + Navitoclax; first compound 2 µM): 0.818

SK-LU-1
relative viability (Imatinib + Vorinostat; first compound 0.02 µM): 0.87 | relative viability (Imatinib + Vorinostat; first compound 0.06325 µM): 0.832 | relative viability (Imatinib + Vorinostat; first compound 0.2 µM): 0.798 | relative viability (Imatinib + Vorinostat; first compound 0.6325 µM): 0.793 | relative viability (Imatinib + Vorinostat; first compound 2 µM): 0.748 | relative viability (Imatinib + Pictilisib; first compound 0.02 µM): 0.738 | relative viability (Imatinib + Pictilisib; first compound 0.06325 µM): 0.682 | relative viability (Imatinib + Pictilisib; first compound 0.2 µM): 0.633 | relative viability (Imatinib + Pictilisib; first compound 2 µM): 0.611 | relative viability (Imatinib + Lapatinib; first compound 0.02 µM): 1.08 | relative viability (Imatinib + Lapatinib; first compound 0.06325 µM): 1.1 | relative viability (Imatinib + Lapatinib; first compound 0.2 µM): 1.11 | relative viability (Imatinib + Lapatinib; first compound 2 µM): 0.82 | relative viability (Imatinib + Navitoclax; first compound 0.02 µM): 1.14 | relative viability (Imatinib + Navitoclax; first compound 0.2 µM): 0.885 | relative viability (Imatinib + Navitoclax; first compound 0.6325 µM): 0.861 | relative viability (Imatinib + Navitoclax; first compound 2 µM): 1.01

HCC-15
relative viability (Imatinib + Vorinostat; first compound 0.02 µM): 0.857 | relative viability (Imatinib + Vorinostat; first compound 0.2 µM): 0.917 | relative viability (Imatinib + Vorinostat; first compound 0.6325 µM): 0.854 | relative viability (Imatinib + Vorinostat; first compound 2 µM): 0.765 | relative viability (Imatinib + Pictilisib; first compound 0.02 µM): 0.719 | relative viability (Imatinib + Pictilisib; first compound 0.06325 µM): 0.324 | relative viability (Imatinib + Pictilisib; first compound 0.2 µM): 0.777 | relative viability (Imatinib + Pictilisib; first compound 0.6325 µM): 0.809 | relative viability (Imatinib + Pictilisib; first compound 2 µM): 0.698 | relative viability (Imatinib + Lapatinib; first compound 0.06325 µM): 0.582 | relative viability (Imatinib + Lapatinib; first compound 0.2 µM): 1 | relative viability (Imatinib + Lapatinib; first compound 0.6325 µM): 0.901 | relative viability (Imatinib + Lapatinib; first compound 2 µM): 0.839 | relative viability (Imatinib + Navitoclax; first compound 0.02 µM): 0.736 | relative viability (Imatinib + Navitoclax; first compound 0.06325 µM): 0.522 | relative viability (Imatinib + Navitoclax; first compound 0.2 µM): 0.764 | relative viability (Imatinib + Navitoclax; first compound 0.6325 µM): 0.722 | relative viability (Imatinib + Navitoclax; first compound 2 µM): 0.709

LC-2-ad
relative viability (Imatinib + Vorinostat; first compound 0.02 µM): 0.73 | relative viability (Imatinib + Vorinostat; first compound 0.2 µM): 0.754 | relative viability (Imatinib + Vorinostat; first compound 0.6325 µM): 0.707 | relative viability (Imatinib + Vorinostat; first compound 2 µM): 0.693 | relative viability (Imatinib + Pictilisib; first compound 0.02 µM): 0.379 | relative viability (Imatinib + Pictilisib; first compound 0.06325 µM): 0.492 | relative viability (Imatinib + Pictilisib; first compound 0.2 µM): 0.573 | relative viability (Imatinib + Pictilisib; first compound 0.6325 µM): 0.429 | relative viability (Imatinib + Pictilisib; first compound 2 µM): 0.43 | relative viability (Imatinib + Lapatinib; first compound 0.02 µM): 0.933 | relative viability (Imatinib + Lapatinib; first compound 0.06325 µM): 0.886 | relative viability (Imatinib + Lapatinib; first compound 0.2 µM): 0.884 | relative viability (Imatinib + Lapatinib; first compound 0.6325 µM): 1.02 | relative viability (Imatinib + Lapatinib; first compound 2 µM): 0.935 | relative viability (Imatinib + Navitoclax; first compound 0.02 µM): 0.481 | relative viability (Imatinib + Navitoclax; first compound 0.06325 µM): 0.361 | relative viability (Imatinib + Navitoclax; first compound 0.2 µM): 0.514 | relative viability (Imatinib + Navitoclax; first compound 0.6325 µM): 0.707 | relative viability (Imatinib + Navitoclax; first compound 2 µM): 0.468

NCI-H1792
relative viability (Imatinib + Pictilisib; first compound 0.02 µM): 0.264 | relative viability (Imatinib + Pictilisib; first compound 0.06325 µM): 0.198 | relative viability (Imatinib + Pictilisib; first compound 0.2 µM): 0.214 | relative viability (Imatinib + Pictilisib; first compound 0.6325 µM): 0.237 | relative viability (Imatinib + Pictilisib; first compound 2 µM): 0.277 | relative viability (Imatinib + Lapatinib; first compound 0.02 µM): 0.859 | relative viability (Imatinib + Lapatinib; first compound 0.06325 µM): 1.08 | relative viability (Imatinib + Lapatinib; first compound 0.2 µM): 0.954 | relative viability (Imatinib + Lapatinib; first compound 0.6325 µM): 0.942 | relative viability (Imatinib + Lapatinib; first compound 2 µM): 0.838 | relative viability (Imatinib + Navitoclax; first compound 0.02 µM): 0.744 | relative viability (Imatinib + Navitoclax; first compound 0.06325 µM): 0.557 | relative viability (Imatinib + Navitoclax; first compound 0.2 µM): 0.761 | relative viability (Imatinib + Navitoclax; first compound 0.6325 µM): 0.644 | relative viability (Imatinib + Navitoclax; first compound 2 µM): 0.567

COR-L23
relative viability (Imatinib + Vorinostat; first compound 0.02 µM): 0.523 | relative viability (Imatinib + Vorinostat; first compound 0.06325 µM): 0.519 | relative viability (Imatinib + Vorinostat; first compound 0.2 µM): 0.424 | relative viability (Imatinib + Vorinostat; first compound 0.6325 µM): 0.399 | relative viability (Imatinib + Vorinostat; first compound 2 µM): 0.41 | relative viability (Imatinib + Pictilisib; first compound 0.02 µM): 1.02 | relative viability (Imatinib + Pictilisib; first compound 0.06325 µM): 0.715 | relative viability (Imatinib + Pictilisib; first compound 0.2 µM): 1.1 | relative viability (Imatinib + Pictilisib; first compound 0.6325 µM): 0.786 | relative viability (Imatinib + Lapatinib; first compound 0.02 µM): 1.13 | relative viability (Imatinib + Lapatinib; first compound 0.06325 µM): 0.791 | relative viability (Imatinib + Lapatinib; first compound 0.2 µM): 1.41 | relative viability (Imatinib + Lapatinib; first compound 0.6325 µM): 0.922 | relative viability (Imatinib + Lapatinib; first compound 2 µM): 0.829 | relative viability (Imatinib + Navitoclax; first compound 0.02 µM): 1.11 | relative viability (Imatinib + Navitoclax; first compound 0.06325 µM): 1.32 | relative viability (Imatinib + Navitoclax; first compound 0.2 µM): 1.5 | relative viability (Imatinib + Navitoclax; first compound 0.6325 µM): 1.04 | relative viability (Imatinib + Navitoclax; first compound 2 µM): 1.03

PC-3 [JPC-3]
relative viability (Imatinib + Vorinostat; first compound 0.02 µM): 0.882 | relative viability (Imatinib + Vorinostat; first compound 0.6325 µM): 0.899 | relative viability (Imatinib + Vorinostat; first compound 2 µM): 0.727 | relative viability (Imatinib + Pictilisib; first compound 0.02 µM): 0.715 | relative viability (Imatinib + Pictilisib; first compound 0.6325 µM): 0.774 | relative viability (Imatinib + Pictilisib; first compound 2 µM): 0.653 | relative viability (Imatinib + Lapatinib; first compound 0.02 µM): 0.503 | relative viability (Imatinib + Lapatinib; first compound 0.2 µM): 0.48 | relative viability (Imatinib + Lapatinib; first compound 0.6325 µM): 0.462 | relative viability (Imatinib + Lapatinib; first compound 2 µM): 0.431 | relative viability (Imatinib + Navitoclax; first compound 0.02 µM): 0.84 | relative viability (Imatinib + Navitoclax; first compound 0.2 µM): 0.789 | relative viability (Imatinib + Navitoclax; first compound 0.6325 µM): 0.811 | relative viability (Imatinib + Navitoclax; first compound 2 µM): 0.687
